In ChEMBL document CHEMBL4406889, “The identification and pharmacological evaluation of potent, selective and orally available ACC1 inhibitor” (Bioorg Med Chem Lett, 2019):
pIC50: −log10 of the molar value.

Assays:
[1] = in vivo; details: ICR, mouse, iv, 0.1 mg/kg
[2] = in vivo; details: ICR, mouse, po, 1 mg/kg
[3] = in vivo; details: ICR, mouse, po, 1 mg/kg; remark: listed apart in the source
Description: MRT in ICR mouse at 1 mg/kg, po

[4] = in vivo; details: ICR, mouse, iv, 0.1 mg/kg; remark: listed apart in the source
Description: Half life in ICR mouse at 0.1 mg/kg, iv

[5] = in vivo; details: ICR, mouse, iv, 0.1 mg/kg; remark: listed apart in the source
Description: Clearance in ICR mouse at 0.1 mg/kg, iv

[6] = in vivo; details: ICR, mouse, iv, 0.1 mg/kg; remark: listed apart in the source
Description: Volume of distribution at steady state in ICR mouse at 0.1 mg/kg, iv

[7] = in vivo; details: ICR, mouse, po, 1 mg/kg; remark: listed apart in the source
[8] = in vitro; details: PAMPA, pH 5
Description: Permeability of compound at pH 5 by PAMPA assay

[9] = in vitro; details: human, liver microsomes
Description: Metabolic stability in human Liver microsomes

[10] = in vitro; details: mouse, liver microsomes
Description: Metabolic stability in mouse Liver microsomes

[11] = in vitro; details: PAMPA, pH 7.4
Description: Permeability of compound at pH 7.4 by PAMPA assay

[12] = target: Acetyl-CoA carboxylase 1 (Mus musculus, UniProt Q5SWU9); experiment: biochemical
Description: Inhibition of mouse His-tagged ACC1 expressed in baculovirus infected SF9 cells using acetyl-CoA as substrate incubated for 60 mins followed by substrate addition and measured after 30 mins Rapidfire-Mass spectrometry

[13] = target: Acetyl-CoA carboxylase 2 (Mus musculus, UniProt E9Q4Z2); experiment: biochemical
Chain of Acetyl-CoA carboxylase 2 (Mus musculus, UniProt E9Q4Z2) (E9Q4Z2 whole entry): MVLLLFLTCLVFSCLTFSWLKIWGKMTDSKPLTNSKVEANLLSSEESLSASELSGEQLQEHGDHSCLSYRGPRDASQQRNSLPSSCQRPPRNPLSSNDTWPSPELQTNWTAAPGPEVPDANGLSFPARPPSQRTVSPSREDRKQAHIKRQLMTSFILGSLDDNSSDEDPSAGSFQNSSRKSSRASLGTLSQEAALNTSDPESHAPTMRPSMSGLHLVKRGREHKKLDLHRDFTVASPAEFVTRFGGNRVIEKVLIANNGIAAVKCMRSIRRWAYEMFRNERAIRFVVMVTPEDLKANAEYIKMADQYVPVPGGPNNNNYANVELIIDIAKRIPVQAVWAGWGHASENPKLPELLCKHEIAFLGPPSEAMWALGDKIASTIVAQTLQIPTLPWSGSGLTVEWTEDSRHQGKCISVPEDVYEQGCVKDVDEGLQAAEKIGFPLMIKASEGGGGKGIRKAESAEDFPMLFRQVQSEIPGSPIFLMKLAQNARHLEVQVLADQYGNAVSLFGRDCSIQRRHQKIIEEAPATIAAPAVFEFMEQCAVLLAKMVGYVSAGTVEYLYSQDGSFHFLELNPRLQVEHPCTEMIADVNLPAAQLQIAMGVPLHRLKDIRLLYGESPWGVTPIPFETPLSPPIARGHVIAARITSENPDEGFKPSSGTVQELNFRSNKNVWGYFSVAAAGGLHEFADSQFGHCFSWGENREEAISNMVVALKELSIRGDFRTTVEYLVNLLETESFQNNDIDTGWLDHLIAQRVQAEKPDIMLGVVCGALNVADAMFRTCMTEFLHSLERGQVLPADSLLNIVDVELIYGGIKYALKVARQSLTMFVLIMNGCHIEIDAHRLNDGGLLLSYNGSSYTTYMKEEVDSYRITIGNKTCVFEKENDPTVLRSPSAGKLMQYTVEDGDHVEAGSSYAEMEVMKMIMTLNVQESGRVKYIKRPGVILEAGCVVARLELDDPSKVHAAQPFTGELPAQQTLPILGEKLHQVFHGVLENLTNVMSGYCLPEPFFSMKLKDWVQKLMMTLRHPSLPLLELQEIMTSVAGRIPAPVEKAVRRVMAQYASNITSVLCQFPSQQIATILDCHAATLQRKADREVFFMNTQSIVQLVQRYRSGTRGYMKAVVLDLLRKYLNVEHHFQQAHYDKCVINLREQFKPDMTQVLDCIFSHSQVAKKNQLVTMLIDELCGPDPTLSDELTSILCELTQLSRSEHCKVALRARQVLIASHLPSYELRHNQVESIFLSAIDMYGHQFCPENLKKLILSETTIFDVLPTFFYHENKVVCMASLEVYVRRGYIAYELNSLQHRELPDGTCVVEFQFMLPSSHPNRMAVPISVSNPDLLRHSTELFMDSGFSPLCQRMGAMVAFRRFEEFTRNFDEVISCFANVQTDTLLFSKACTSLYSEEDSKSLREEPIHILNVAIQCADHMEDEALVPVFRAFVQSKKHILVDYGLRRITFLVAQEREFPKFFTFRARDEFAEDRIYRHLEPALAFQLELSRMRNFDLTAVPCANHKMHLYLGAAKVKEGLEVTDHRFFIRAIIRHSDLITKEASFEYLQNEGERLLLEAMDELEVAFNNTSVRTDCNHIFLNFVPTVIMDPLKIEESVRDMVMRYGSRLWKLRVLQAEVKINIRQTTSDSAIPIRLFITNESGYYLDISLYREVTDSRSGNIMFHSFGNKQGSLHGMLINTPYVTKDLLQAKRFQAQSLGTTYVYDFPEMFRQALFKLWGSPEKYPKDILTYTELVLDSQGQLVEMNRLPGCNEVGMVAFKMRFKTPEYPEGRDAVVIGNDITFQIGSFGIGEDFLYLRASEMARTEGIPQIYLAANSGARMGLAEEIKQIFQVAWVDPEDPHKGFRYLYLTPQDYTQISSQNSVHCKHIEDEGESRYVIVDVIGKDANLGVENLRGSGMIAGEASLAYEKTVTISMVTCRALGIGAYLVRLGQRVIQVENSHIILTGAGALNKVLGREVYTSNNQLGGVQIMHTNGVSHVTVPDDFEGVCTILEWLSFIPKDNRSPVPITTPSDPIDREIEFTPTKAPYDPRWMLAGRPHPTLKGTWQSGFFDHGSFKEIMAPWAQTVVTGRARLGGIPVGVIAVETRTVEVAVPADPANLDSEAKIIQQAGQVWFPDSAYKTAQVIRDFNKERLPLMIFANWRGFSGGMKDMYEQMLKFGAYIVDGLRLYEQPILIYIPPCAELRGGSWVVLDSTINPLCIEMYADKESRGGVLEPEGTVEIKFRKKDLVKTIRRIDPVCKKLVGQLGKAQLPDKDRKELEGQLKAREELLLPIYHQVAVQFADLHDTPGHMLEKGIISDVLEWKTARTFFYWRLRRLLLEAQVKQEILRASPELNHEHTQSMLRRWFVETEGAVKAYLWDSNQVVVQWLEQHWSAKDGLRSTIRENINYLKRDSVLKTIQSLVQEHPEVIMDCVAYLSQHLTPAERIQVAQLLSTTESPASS
Description: Inhibition of mouse His-tagged ACC2 expressed in baculovirus infected SF9 cells using acetyl-CoA as substrate incubated for 60 mins followed by substrate addition and measured after 30 mins Rapidfire-Mass spectrometry

[14] = target: Acetyl-CoA carboxylase 1 (Homo sapiens, UniProt Q13085); experiment: biochemical
Description: Inhibition of recombinant human His-tagged ACC1 expressed in baculovirus infected SF9 cells using acetyl-CoA as substrate incubated for 60 mins followed by substrate addition and measured after 30 mins Rapidfire-Mass spectrometry

[15] = target: Acetyl-CoA carboxylase 2 (Homo sapiens, UniProt O00763); experiment: biochemical
Chain of Acetyl-CoA carboxylase 2 (Homo sapiens, UniProt O00763) (O00763 whole entry): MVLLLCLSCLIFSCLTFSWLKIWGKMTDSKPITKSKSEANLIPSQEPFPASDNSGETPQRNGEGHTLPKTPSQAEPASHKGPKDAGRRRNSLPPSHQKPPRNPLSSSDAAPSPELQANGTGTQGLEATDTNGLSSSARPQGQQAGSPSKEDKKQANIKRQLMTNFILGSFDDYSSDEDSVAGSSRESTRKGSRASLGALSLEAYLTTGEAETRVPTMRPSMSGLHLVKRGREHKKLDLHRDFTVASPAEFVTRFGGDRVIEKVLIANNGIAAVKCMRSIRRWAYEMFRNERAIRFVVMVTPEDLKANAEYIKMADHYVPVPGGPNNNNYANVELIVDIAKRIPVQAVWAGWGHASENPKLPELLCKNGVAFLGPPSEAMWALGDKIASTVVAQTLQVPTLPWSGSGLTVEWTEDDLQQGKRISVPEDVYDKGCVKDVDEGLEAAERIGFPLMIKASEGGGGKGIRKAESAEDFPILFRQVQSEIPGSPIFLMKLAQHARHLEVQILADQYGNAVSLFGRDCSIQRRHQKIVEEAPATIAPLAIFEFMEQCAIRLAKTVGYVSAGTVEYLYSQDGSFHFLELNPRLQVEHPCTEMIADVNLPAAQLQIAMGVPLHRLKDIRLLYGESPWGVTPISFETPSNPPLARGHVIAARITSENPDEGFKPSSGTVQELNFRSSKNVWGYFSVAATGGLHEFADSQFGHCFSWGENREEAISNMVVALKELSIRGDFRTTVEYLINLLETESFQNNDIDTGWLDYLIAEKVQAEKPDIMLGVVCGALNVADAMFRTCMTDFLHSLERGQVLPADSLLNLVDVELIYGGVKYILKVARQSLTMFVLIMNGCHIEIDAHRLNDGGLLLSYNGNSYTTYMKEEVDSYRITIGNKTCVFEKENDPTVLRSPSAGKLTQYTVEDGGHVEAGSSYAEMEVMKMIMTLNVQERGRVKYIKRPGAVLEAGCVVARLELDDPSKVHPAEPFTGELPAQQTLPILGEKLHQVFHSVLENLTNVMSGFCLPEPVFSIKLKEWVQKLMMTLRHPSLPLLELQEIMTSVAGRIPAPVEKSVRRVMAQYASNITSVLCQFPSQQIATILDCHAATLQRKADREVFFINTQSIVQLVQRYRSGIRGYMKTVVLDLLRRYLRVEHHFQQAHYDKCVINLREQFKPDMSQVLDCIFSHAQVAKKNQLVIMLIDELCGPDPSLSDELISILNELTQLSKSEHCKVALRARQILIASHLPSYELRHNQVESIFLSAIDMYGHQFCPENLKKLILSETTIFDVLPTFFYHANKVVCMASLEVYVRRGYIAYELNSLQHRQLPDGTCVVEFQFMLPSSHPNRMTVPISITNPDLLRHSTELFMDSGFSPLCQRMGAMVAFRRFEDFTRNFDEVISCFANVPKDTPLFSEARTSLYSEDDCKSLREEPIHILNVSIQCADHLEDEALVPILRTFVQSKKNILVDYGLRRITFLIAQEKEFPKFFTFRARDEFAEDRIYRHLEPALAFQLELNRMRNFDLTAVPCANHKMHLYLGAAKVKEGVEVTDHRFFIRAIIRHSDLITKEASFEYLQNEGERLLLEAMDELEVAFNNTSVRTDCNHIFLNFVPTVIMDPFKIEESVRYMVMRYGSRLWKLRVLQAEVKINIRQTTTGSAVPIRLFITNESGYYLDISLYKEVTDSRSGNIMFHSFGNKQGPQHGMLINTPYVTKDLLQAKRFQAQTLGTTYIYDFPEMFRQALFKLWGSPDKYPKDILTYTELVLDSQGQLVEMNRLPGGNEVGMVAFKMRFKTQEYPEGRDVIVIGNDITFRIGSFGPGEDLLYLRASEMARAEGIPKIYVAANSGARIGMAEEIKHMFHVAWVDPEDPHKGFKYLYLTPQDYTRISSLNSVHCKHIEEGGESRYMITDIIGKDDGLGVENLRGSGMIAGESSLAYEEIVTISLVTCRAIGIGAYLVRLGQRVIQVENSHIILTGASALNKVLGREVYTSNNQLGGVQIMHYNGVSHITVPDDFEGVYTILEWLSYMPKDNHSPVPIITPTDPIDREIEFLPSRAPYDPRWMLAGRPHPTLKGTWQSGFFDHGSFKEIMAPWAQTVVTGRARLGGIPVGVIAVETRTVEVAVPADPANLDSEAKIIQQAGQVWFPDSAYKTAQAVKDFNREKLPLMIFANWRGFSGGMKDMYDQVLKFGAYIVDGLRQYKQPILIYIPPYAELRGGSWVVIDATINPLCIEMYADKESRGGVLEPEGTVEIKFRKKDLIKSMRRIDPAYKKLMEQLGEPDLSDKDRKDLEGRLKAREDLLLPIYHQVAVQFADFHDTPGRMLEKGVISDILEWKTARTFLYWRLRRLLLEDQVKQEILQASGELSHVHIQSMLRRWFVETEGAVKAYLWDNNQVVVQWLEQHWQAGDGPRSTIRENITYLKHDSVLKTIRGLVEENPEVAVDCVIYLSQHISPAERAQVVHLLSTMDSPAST
Description: Inhibition of recombinant human His-tagged ACC2 expressed in baculovirus infected SF9 cells using acetyl-CoA as substrate incubated for 60 mins followed by substrate addition and measured after 30 mins Rapidfire-Mass spectrometry

| Cmax [1] | AUC(0-t) at 8 h [2] | MRT [3] | half-life [4] | clearance [5] | Vd [6] | bioavailability [7] | Papp [8] | microsomal CLint [9] | microsomal CLint [10] | Papp [11] | pIC50 [12] | pIC50 [13] | pIC50 [14] | pIC50 [15] | SMILES |
| --- | --- | --- | --- | --- | --- | --- | --- | --- | --- | --- | --- | --- | --- | --- | --- |
| 1110 ng/mL | 6880 ng·h/mL | 3.69 h | > 8 h | 1.47 mL/min/kg | 0.269 L/kg | 60.6% | 27.2 ×10⁻⁶ cm/s | 27 µL/min/mg | 65 µL/min/mg | 33.7 ×10⁻⁶ cm/s | 9.74 | 7.44 | – | – | CC(=O)NC(C)c1ccc2nc(-c3ccc(Oc4cccc(OCC5CC5)c4)nc3)oc2c1 (configuration not stated) |
| – | – | – | – | – | – | – | – | – | – | – | – | – | 8.68 | 7.10 | CC(NC(=O)N(C)C)c1ccc2nc(-c3ccc(Oc4cccc(OCC5CC5)c4)nc3)oc2c1 (configuration not stated) |
| – | – | – | – | – | – | – | – | – | – | – | – | – | 8.42 | 7.11 | CNC(=O)NC(C)c1ccc2nc(-c3ccc(Oc4cccc(OCC5CC5)c4)nc3)oc2c1 (configuration not stated) |
